Assays:
[1] = test system: cynomolgus monkeys fed the HCHF diet; type: in vivo, cynomolgus monkey; settings: single iv injection 20 mg/kg, at day 7, n=2, P<.05
[2] = test system: CETP; settings: ref [10]; cited from earlier work
[3] = test system: baboons; settings: in vivo
[4] = test system: baboons; experiment: IgG levels, body weights and food consumption in baboons; settings: during the study (data not shown)
[5] = test system: baboons fed the HCHF diet; type: in vivo, baboon

truncated apoC-I peptide: 38 amino acid N-terminal fragment of apoC-I peptide based on human sequences, made by solid-phase synthesis; CETP inhibitor (TPDVSSALDKLKEFGNTLEDKARELISRIKQSELSAKM; UniProt P02654 27-64, looked up, fragment)
maximum decrease in plasma LDL cholesterol levels [1]: 26.5 ± 4.5%
CETP activity in the plasma of low-HDL baboons [2]: inhibited CETP activity
plasma IgG levels, change in response to peptide infusion [3]: did not change significantly
body weights [4]: no change
food consumption [4]: no change
day by which VLDL + LDL cholesterol reached baseline values ([5]; intravenous, 10, 15, 20 mg/kg on days 0, 7, 14, n=3): ≤ 25 days
maximum increase in HDL cholesterol concentration ([5]; intravenous, 10, 15, 20 mg/kg on days 0, 7, 14, n=3, P<.05): 20%
change in plasma triglycerides ([5]; intravenous, 10, 15, 20 mg/kg on days 0, 7, 14, until day 19, except at day 4, n=3): decreased
day on which VLDL + LDL cholesterol returned to baseline values ([5]; subcutaneous, 10, 15, 20 mg/kg on days 0, 7, 14, n=3): 28 days
maximum decrease in VLDL + LDL cholesterol ([5]; subcutaneous, 10, 15, 20 mg/kg on days 0, 7, 14, on day 19, n=3): 20%
maximum increase in HDL cholesterol ([5]; subcutaneous, 10, 15, 20 mg/kg on days 0, 7, 14, on day 23, n=3): 20%
